Results published in patent US12240840B2, “Amide-substituted heterocyclic compounds for the treatment of conditions related to the modulation of IL-12, IL-23 and/or IFN-alpha” (BRISTOL-MYERS SQUIBB COMPANY, priority 2018, dated 2025).

Test system: IFNα-induced pSTAT5 (pY694) in CD3 positive cells of human whole blood
Assay: IFNα-Induced STAT Phosphorylation in Human Whole Blood
Type: cell-based
Details: 1 h compound incubation, 1000 U/mL recombinant human IFNα A/D for 15 min, pSTAT5 in CD3 positive population, read-out: Human WB IFNα-Induced Stat Phosph. (IC50)
How it was run: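 Read-out is median fluorescence intensity of pSTAT5 (pY694) in the CD3-positive gate, by flow cytometry after fix/lyse and permeabilization. Before that, whole human blood anticoagulated with EDTA or ACD-A received compound for an hour and 1000 U/mL IFNα A/D for 15 min.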

| IC50 [nM] | SMILES |
| --- | --- |
| 290 | [2H]C([2H])([2H])NC(=O)c1cnc(NC(=O)C2CC2)cc1Nc1cccc(-c2ccn(CCNC(=O)COC)n2)c1OC [Example 472] |
| > 10000 | [2H]C([2H])([2H])NC(=O)c1cnc(NC(=O)C2CC2)cc1Nc1cccc(-c2ccn(CCNC(=O)COC)n2)c1OC [Example 473] |
| 1070 | [2H]C([2H])([2H])NC(=O)c1nnc(NC(=O)C2CC2)cc1Nc1cccc(-c2cnn(CCNC(C)=O)c2)c1OC [Example 556, 4-((3-(1-(2-acetamidoethyl)-1H-pyrazol-4-yl)-2-methoxyphenyl)amino)-6-(cyclopropanecarboxamido)-N-(methyl-d3)pyridazine-3-carboxamide] |

Same assay, conditions: Homo sapiens, 1 h compound incubation, 1000 U/mL recombinant human IFNα A/D for 15 min, pSTAT5 in CD3 positive population, read-out: Human WB IFNα-Induced Stat Phosph. (IC50)

| SMILES | IC50 [nM] |
| --- | --- |
| [2H]C([2H])([2H])NC(=O)c1cnc(NC(=O)C2CC2)cc1Nc1cccc(-c2cnn(CCNC(=O)C(C)(C)O)n2)c1OC [Example 443] | 270 |
| [2H]C([2H])([2H])NC(=O)c1nnc(NC(=O)C2CC2)cc1Nc1cccc(-c2cnn(CC(=O)NCC(CC)CC)n2)c1OC [Example 428] | 2630 |
| [2H]C([2H])([2H])NC(=O)c1nnc(NC(=O)C2CC2)cc1Nc1cccc(-c2noc(C(CC)C(=O)N3CCOCC3)n2)c1OC (centres unmarked) [Example 45] | 160 |
| [2H]C([2H])([2H])NC(=O)c1nnc(Nc2cc(C(C)(C)O)ccn2)cc1Nc1cccc(-c2csc(C(=O)NCCOC)n2)c1OC [Example 571] | 1760 |
| [2H]C([2H])([2H])NC(=O)c1nnc(NC(=O)C2CC2)cc1Nc1cccc(-c2nc([C@H](C)N)no2)c1OC [Example 181] | 630 |
| [2H]C([2H])([2H])NC(=O)c1nnc(NC(=O)C2CC2)cc1Nc1cccc(-c2cc(C(=O)NCC)n(C)n2)c1OC [Example 457] | 770 |
| [2H]C([2H])([2H])NC(=O)c1nnc(NC(=O)C2CC2)cc1Nc1cccc(-c2ncc(C(=O)N3CCC[C@H]3CO)s2)c1OC [Example 302] | 110 |
| [2H]C([2H])([2H])NC(=O)c1nnc(NC(=O)C2CC2)cc1Nc1cc(F)cc(-c2cc(C(=O)N(C)CCN(C)C)n(C)n2)c1OC [Example 514] | 870 |
| [2H]C([2H])([2H])NC(=O)c1nnc(NC(=O)C2CC2)cc1Nc1cccc(-c2nc([C@@H](C)NC(C)=O)no2)c1OC [Example 194] | 160 |
| [2H]C([2H])([2H])NC(=O)c1nnc(NC(=O)C2CC2)cc1Nc1cccc(-c2nc(CN3CCN(C(C)=O)CC3=O)no2)c1OC [Example 140] | 330 |
| [2H]C([2H])([2H])NC(=O)c1nnc(NC(=O)C2CC2)cc1Nc1cccc(-c2ncc(COCC)s2)c1OC [Example 394] | 420 |
| COc1c(Nc2cc(NC3CC3)nnc2C(N)=O)cccc1-c1noc(CNS(C)(=O)=O)n1 [Example 118] | 3800 |
| [2H]C([2H])([2H])NC(=O)c1nnc(NC(=O)C2CC2)cc1Nc1cccc(-c2ncc(NC(=O)COC)s2)c1OC [Example 283] | 360 |
| [2H]C([2H])([2H])NC(=O)c1nnc(NC(=O)C2CC2)cc1Nc1cccc(-c2cnn(CCN)n2)c1OC [Example 448] | 140 |
| [2H]C([2H])([2H])NC(=O)c1nnc(NC(=O)C2CC2)cc1Nc1cccc(-c2nc(C)c(C(=O)N3CCOCC3)s2)c1OC [Example 356] | 80 |
| COc1c(Nc2cc(NC(=O)C3CC3)nnc2C(N)=O)cccc1-c1ncc(CN2CCOCC2)s1 [Example 401] | 180 |
| [2H]C([2H])([2H])NC(=O)c1nnc(NC(=O)C2CC2)cc1Nc1cccc(-c2ncc(CNC(=O)CC#N)s2)c1OC [Example 264] | 1550 |

| SMILES | IC50 [nM] |
| --- | --- |
| COc1c(Nc2cc(N)nnc2C(N)=O)cccc1-c1ncc(C(=O)NCCC2CCCN2C)s1 (centres unmarked) [Example 377] | 1410 |
| COCCN1CCN(Cc2cnc(-c3cccc(Nc4cc(NC(=O)C5CC5)nnc4C(N)=O)c3OC)s2)CC1 [Example 399] | 180 |
| [2H]C([2H])([2H])NC(=O)c1nnc(NC(=O)C2CC2)cc1Nc1cccc(-c2cnn(CCNC(=O)CC#N)n2)c1OC [Example 435] | 260 |
| [2H]C([2H])([2H])NC(=O)c1nnc(NC(=O)C2CC2)cc1Nc1cccc(-c2ncc(C(=O)NCC(C)CN(C)C)s2)c1OC (centres unmarked) [Example 352] | 70 |
| COc1c(Nc2cc(NC(=O)C3CC3)nnc2C(N)=O)cccc1-c1noc(CN(C(C)C)S(C)(=O)=O)n1 [Example 61] | 60 |
| [2H]C([2H])([2H])NC(=O)c1nnc(NC(=O)C2CC2)cc1Nc1cccc(-c2nc(C)c(C(=O)N3CCN(C(C)C)CC3)s2)c1OC [Example 369] | 50 |
| [2H]C([2H])([2H])NC(=O)c1nnc(NC(=O)C2CC2)cc1Nc1cccc(-c2ncc(CC(=O)NCCC3CCCN3C)s2)c1OC (centres unmarked) [Example 254] | 5430 |
| [2H]C([2H])([2H])NC(=O)c1nnc(NC(=O)C2CC2)cc1Nc1cccc(-c2nc(C)c(C(=O)NCC3CCN(C)C3)s2)c1OC (centres unmarked) [Example 368] | 350 |
| COc1c(Nc2cc(NC(=O)C3CC3)nnc2C(N)=O)cccc1-c1ncc(CC(=O)N2CCOCC2)s1 [Example 244] | 120 |
| [2H]C([2H])([2H])NC(=O)c1nnc(NC(=O)C2CC2)cc1Nc1cccc(-c2ncc(C(=O)N3CCC(N4CCCC4)CC3)s2)c1OC [Example 350] | 40 |
| [2H]C([2H])([2H])NC(=O)c1nnc(NC(=O)C2CC2)cc1Nc1cccc(-c2noc(CNC(C)=O)n2)c1OC [Example 31] | 380 |
| [2H]C([2H])([2H])NC(=O)c1nnc(NC(=O)C2CC2)cc1Nc1cccc(-c2nc(CNC(=O)CN3CCOCC3)no2)c1OC [Example 159] | 1080 |
| [2H]C([2H])([2H])NC(=O)c1cnc(NC(=O)C2CC2)cc1Nc1cccc(-c2cnn(CCNS(C)(=O)=O)n2)c1OC [Example 436] | 300 |
| [2H]C([2H])([2H])NC(=O)c1cnc(Nc2cc(C)ccn2)cc1Nc1cccc(-c2noc(COC)n2)c1OC [Example 99] | 40 |
| [2H]C([2H])([2H])NC(=O)c1nnc(NC(=O)C2CC2)cc1Nc1cccc(-c2ncc(C(=O)NC3CCC(O)CC3)s2)c1OC (centres unmarked) [Example 306] | 440 |
| [2H]C([2H])([2H])NC(=O)c1nnc(NC(=O)C2CC2)cc1Nc1cccc(-c2cc(C(=O)N3CCN(O)CC3)n(C)n2)c1OC [Example 478] | 150 |
| [2H]C([2H])([2H])NC(=O)c1nnc(NC(=O)C2CC2)cc1Nc1cccc(-c2cc(C(=O)NCC34CCN(CC3)CC4)n(C)n2)c1OC [Example 504] | > 10000 |

Now from value to molecule:

| IC50 [nM] | SMILES |
| --- | --- |
| 640 | [2H]C([2H])([2H])NC(=O)c1nnc(NC(=O)C2CC2)cc1Nc1cccc(-c2ncc(CC(=O)N3CCS(=O)(=O)CC3)s2)c1OC [Example 250] |
| 530 | [2H]C([2H])([2H])NC(=O)c1nnc(NC(=O)C2CC2)cc1Nc1cccc(-c2cc(C(=O)NCCC3CCCN3C)n(C)n2)c1OC (centres unmarked) [Example 533] |
| 30 | [2H]C([2H])([2H])NC(=O)c1nnc(NC(=O)C2CC2)cc1Nc1cccc(-c2ncc(C(=O)N3CCC(CCO)CC3)s2)c1OC [Example 297] |
| 22 | [2H]C([2H])([2H])NC(=O)c1nnc(NC(=O)C2CC2)cc1Nc1cccc(-c2ncc(C(=O)N3CCC(N(C)C)CC3)s2)c1OC [Example 315] |
| 2240 | [2H]C([2H])([2H])NC(=O)c1nnc(NC(=O)C2CC2)cc1Nc1cccc(-c2ncc(CC(=O)NCC(O)CO)s2)c1OC (centres unmarked) [Example 248] |
| > 10000 | [2H]C([2H])([2H])NC(=O)c1nnc(NC(=O)C2CC2)cc1Nc1cccc(-c2nc(CNC(=O)CNC(=O)OC(C)(C)C)no2)c1OC [Example 157] |
| 620 | [2H]C([2H])([2H])NC(=O)c1nnc(NC(=O)C2CC2)cc1Nc1cccc(-c2ncc(CC(=O)NCCOC)s2)c1OC [Example 255] |
| 110 | [2H]C([2H])([2H])NC(=O)c1nnc(Nc2cc(C)n(C)n2)cc1Nc1cc(F)cc(-c2cc(C(C)(C)O)n(C)n2)c1OC [Example 546] |
| 260 | [2H]C([2H])([2H])NC(=O)c1nnc(NC(=O)C2CC2)cc1Nc1cccc(-c2ncc(CC(=O)N(C)C)o2)c1OC [Example 410, 6-(cyclopropanecarboxamido)-4-((3-(5-(2-(dimethylamino)-2-oxoethyl)oxazol-2-yl)-2-methoxyphenyl)amino)-N-(methyl-d3)pyridazine-3-carboxamide] |
| 100 | [2H]C([2H])([2H])NC(=O)c1nnc(Nc2cc(C)n(C)n2)cc1Nc1cccc(-c2ncc(C(=O)N3CCS(=O)(=O)CC3)s2)c1OC [Example 382] |
| 70 | [2H]C([2H])([2H])NC(=O)c1nnc(NC(=O)C2CC2)cc1Nc1cccc(-c2ncc(C(=O)N3CCNC(=O)C3)s2)c1OC [Example 312] |
| 270 | [2H]C([2H])([2H])NC(=O)c1nnc(NC(=O)C2CC2)cc1Nc1cccc(-c2nc(CNC(C)=O)no2)c1OC [Example 145] |
| 560 | [2H]C([2H])([2H])NC(=O)c1nnc(NC(=O)C2CC2)cc1Nc1cccc(-c2noc(C(=O)N3CCOCC3)n2)c1OC [Example 16] |
| 15 | [2H]C([2H])([2H])NC(=O)c1cnc(NC(=O)C2CC2)cc1Nc1cccc(-c2noc(CN3CCOCC3)n2)c1OC [Example 96] |
| 830 | [2H]C([2H])([2H])NC(=O)c1nnc(NC(=O)C2CC2)cc1Nc1cccc(-c2ncc(CNC(=O)COC)s2)c1OC [Example 263] |
| 250 | [2H]C([2H])([2H])NC(=O)c1nnc(NC(=O)C2CC2)cc1Nc1cccc(-c2cc(C(=O)N3CCN(C(=O)OC)CC3)n(C)n2)c1OC [Example 494] |
| 100 | [2H]C([2H])([2H])NC(=O)c1nnc(NC(=O)C2CC2)cc1Nc1cccc(-c2nc(CN3CC4CN(C(C)=O)CC4C3)no2)c1OC (centres unmarked) [Example 233] |
| 30 | [2H]C([2H])([2H])NC(=O)c1cnc(NC(=O)C2CC2)cc1Nc1cccc(-c2noc(COC(C)C)n2)c1OC [Example 89] |
| 2530 | [2H]C([2H])([2H])NC(=O)c1nnc(NC(=O)C2CC2)cc1Nc1cccc(-c2ncc(CNC(=O)OC)s2)c1OC [Example 266] |
